Activity calls are given as the source filed them.
Columns and labels:
[1] = molecular target: T1, Mitochondrial peptide methionine sulfoxide reductase (Bos taurus, UniProt P54149); experiment: Absorbance-based biochemical high throughput dose response assay for activators of Methionine sulfoxide reductase A (MsrA).; format: functional
T1 sequence (P54149 whole entry): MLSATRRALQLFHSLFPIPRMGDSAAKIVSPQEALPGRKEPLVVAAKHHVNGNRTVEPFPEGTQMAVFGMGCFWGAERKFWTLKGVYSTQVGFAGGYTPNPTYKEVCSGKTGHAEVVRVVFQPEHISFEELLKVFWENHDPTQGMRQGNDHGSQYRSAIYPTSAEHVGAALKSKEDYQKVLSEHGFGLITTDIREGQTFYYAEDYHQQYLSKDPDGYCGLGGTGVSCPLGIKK

[2] = growth suppression of PTEN-null colon cells, dose response, cell-based, HCT116 PTEN knockout (AID 1047); format: functional;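 note: HCT116 colon tumor cells with PTEN knocked out; cells exposed to compound for 60 hours before readout; potency for loss of cell viability measured by luminescence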
[3] = molecular target: T2, Tyrosyl-DNA phosphodiesterase 2 (Homo sapiens, UniProt O95551); experiment: human TDP2 enzyme inhibitors, dose response, biochemical, epi absorbance, IC50 (AID 743297)
T2 sequence (O95551 whole entry): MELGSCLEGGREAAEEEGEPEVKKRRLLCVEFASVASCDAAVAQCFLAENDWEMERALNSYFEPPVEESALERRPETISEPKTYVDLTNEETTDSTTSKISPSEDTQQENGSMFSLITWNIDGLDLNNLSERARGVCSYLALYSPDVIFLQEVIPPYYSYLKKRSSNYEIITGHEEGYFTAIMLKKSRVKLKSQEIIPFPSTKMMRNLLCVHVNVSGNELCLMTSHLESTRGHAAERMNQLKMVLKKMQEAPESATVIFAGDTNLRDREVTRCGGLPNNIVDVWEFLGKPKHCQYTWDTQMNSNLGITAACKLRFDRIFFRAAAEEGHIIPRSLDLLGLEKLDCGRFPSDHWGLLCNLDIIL

[4] = HepG2 cell cytotoxicity, dose response, cytotoxicity control for non-replicating M. tuberculosis project (AID 489018); format: functional; conditions: Mycobacterium tuberculosis
Insulin-degrading enzyme [5] = molecular target: T3, Insulin-degrading enzyme (Homo sapiens, UniProt P14735); experiment: activators of recombinant IDE enzyme, dose response, counter-screen for IDE activator project, biochemical, fluorescence polarization (AID 588681)
T3 sequence (P14735 whole entry): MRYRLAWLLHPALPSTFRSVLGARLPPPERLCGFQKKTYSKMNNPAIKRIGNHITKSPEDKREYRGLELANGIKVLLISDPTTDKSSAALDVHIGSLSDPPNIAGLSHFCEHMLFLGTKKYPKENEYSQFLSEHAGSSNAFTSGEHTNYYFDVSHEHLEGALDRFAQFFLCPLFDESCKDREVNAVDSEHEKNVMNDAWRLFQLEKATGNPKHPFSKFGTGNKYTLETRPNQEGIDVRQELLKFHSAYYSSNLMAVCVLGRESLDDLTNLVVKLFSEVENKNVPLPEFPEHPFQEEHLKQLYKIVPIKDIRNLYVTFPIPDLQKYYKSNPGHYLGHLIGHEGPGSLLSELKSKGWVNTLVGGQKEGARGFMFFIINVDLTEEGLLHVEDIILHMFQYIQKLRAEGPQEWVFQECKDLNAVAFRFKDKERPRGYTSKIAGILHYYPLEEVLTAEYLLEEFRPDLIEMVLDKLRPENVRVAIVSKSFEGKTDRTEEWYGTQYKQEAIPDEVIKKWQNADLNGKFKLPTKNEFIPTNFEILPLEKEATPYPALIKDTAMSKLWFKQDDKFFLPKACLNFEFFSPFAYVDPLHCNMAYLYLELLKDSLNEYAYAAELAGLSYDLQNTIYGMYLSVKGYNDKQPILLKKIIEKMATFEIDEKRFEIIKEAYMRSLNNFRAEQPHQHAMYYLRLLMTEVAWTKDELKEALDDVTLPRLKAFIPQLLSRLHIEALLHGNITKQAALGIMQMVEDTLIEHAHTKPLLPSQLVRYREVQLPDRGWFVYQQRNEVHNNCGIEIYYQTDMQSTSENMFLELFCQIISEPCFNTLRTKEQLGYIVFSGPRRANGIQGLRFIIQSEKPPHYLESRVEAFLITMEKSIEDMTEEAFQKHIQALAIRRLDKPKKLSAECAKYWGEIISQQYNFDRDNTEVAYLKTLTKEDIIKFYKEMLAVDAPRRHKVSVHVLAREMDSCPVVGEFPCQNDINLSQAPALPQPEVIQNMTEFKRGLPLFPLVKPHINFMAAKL

Nonstructural protein 1 = Nonstructural protein 1 (Influenza A virus, UniProt Q194T2); format: functional, Influenza A virus (A/California/07/2009(H1N1))
Insulin-degrading enzyme [6] = molecular target: T3, Insulin-degrading enzyme; experiment: activators of endogenous IDE in HEK cells, dose response, cell-based, fluorescence polarization (AID 588439); format: functional
[7] = THP-1 cell cytotoxicity, dose response, cytotoxicity control for non-replicating M. tuberculosis project (AID 489025); format: functional
HEK293 [8] = experiment: HEK cell cytotoxicity by LDH release, dose response, cytotoxicity control for IDE activator project, fluorescence, HEK cells (AID 588440); format: functional, cell-based; conditions: Homo sapiens;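 note: cytotoxicity by LDH release measuring loss of membrane integrity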
[9] = molecular target: T4, Heat shock factor protein 1 (Mus musculus, UniProt P38532); experiment: HSF1 potentiators in luciferase reporter cells, confirmation, cell-based, NIH3T3, luminescence, dose retest (AID 435004); format: functional;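 note: stress induced by proteasome inhibitor MG132 added 30 min after compound; luciferase reporter driven by HSF1 response element in NIH3T3 cells; actives raise luminescence as potentiators of the MG132 stress response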
T4 sequence (P38532 whole entry): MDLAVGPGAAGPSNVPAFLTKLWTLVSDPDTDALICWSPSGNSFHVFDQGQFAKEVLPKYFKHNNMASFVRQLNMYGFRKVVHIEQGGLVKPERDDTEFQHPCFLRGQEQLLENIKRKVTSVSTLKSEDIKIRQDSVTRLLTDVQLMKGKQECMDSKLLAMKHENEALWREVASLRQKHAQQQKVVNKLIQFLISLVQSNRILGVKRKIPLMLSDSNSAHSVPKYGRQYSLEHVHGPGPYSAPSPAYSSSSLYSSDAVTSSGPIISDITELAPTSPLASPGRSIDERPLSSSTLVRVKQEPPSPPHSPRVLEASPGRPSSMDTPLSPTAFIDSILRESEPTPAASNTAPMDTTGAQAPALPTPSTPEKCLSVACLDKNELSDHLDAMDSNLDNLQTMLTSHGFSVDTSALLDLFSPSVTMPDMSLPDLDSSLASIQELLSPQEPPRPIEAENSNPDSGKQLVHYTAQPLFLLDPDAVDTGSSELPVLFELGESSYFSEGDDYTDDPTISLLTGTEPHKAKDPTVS

[10] = molecular target: Induced myeloid leukemia cell differentiation protein Mcl-1 (Homo sapiens, UniProt Q07820); format: functional
BJ [11] = experiment: cytotoxicity toward BJ-TERT fibroblasts, dose response, cell-based, RAS-independent, luminescence (AID 1933); format: functional; conditions: Homo sapiens
BJ [12] = experiment: cells; format: functional, cell-based; conditions: Homo sapiens
HEK293 [13] = experiment: inhibitors of LMP1-driven NF-kB reporter, dose response, cell-based, HEK293, luciferase, cherry-pick (AID 588343); format: functional; conditions: Homo sapiens
cells = format: functional, cell-based

Nonstructural protein 1, sequence (Q194T2 whole entry): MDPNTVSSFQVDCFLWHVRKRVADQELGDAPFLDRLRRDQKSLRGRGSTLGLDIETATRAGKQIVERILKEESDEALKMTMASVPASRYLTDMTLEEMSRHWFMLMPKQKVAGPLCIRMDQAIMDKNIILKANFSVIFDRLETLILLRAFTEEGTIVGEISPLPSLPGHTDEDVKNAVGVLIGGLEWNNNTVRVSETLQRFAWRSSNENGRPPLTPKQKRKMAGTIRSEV
Induced myeloid leukemia cell differentiation protein Mcl-1, sequence (Q07820 whole entry): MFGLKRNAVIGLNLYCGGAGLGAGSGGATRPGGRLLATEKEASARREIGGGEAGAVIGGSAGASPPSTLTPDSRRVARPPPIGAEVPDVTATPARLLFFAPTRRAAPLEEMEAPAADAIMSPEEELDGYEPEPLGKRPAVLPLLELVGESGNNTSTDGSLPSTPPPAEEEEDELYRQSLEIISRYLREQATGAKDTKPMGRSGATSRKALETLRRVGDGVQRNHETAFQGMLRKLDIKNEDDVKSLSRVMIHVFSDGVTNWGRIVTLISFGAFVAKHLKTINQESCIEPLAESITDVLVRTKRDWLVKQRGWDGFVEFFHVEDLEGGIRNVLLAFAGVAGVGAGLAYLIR

## O=C(c1ccccc1)c1coc2c1C(=O)c1ccccc1C2=O
[1]
  EC50: 37.7 µM (inactive)

## CCOC(=O)c1c(C)[nH]c2c1-c1ccccc1C(=O)C2=O
[2]
  EC50: 0.487 µM (active)
[3]
  IC50: 0.915 µM (active)

## CCOC(=O)C1=C(c2ccccc2)N=C(N)NC1c1ccc(OCc2ccc(Cl)cc2)c(OC)c1 (stereo not given)
[4]
  CC50: 13.1 µM (active)
Insulin-degrading enzyme [5]
  EC50: 52.1 µM (inactive)
Nonstructural protein 1
  IC50: 79.2 µM (active)
Insulin-degrading enzyme [6]
  EC50: 42.5 µM (inactive)
[7]
  CC50: 9.43 µM (active)
HEK293 [8]
  IC50: 13 µM (inactive)
[9]
  EC50: 25 µM (active)

## COc1ccc2c(c1)CCC(/C=N/c1ccc3c(c1)OCO3)=C2O
[10]
  IC50: 16.7 µM (not active)

## CC(=O)NC(c1ccc2ccccc2c1)c1ccc2cccnc2c1O (stereo not given)
BJ [11]
  EC50: 0.687 µM (active)
BJ [12]
  EC50: 6.35 µM (active)
HEK293 [13]
  AC50: 4.18 µM (active)
cells
  EC50: 7.14 µM (active)
